Laboratory results reported in patent US6838415B1, “Substituted benzoylisoxazoles and the use thereof as herbicides” (Bayer Aktiengesellschaft, priority 1999, dated 2005).

What was measured:
[1] = logP by HPLC on reverse-phase column (C 18), acidic range; assay type: physicochemical; conditions: for logP a): acidic range: 0.1% aqueous phosphoric acid/acetonitrile gradient, HPLC C 18, 43° C.; for logP: HPLC reverse-phase column (C 18), 43° C., acidic range: 0.1% aqueous phosphoric acid, acetonitrile; data labelled a)
Procedure: (§1) The logP values given in Table 1 were determined in accordance with EE Directive 79/831 Annex V.A8 by HPLC (High Performance Liquid Chromatography) using a reverse-phase column (C 18). Temperature: 43° C. (a) Mobile phases for the determination in the acidic range: 0.1% aqueous phosphoric acid, acetonitrile; linear gradient from 10% acetonitrile to 90% acetonitrile—the corresponding data in Table 1 are labelled ^a). Calibration was carried out using unbranched alkan-2-ones (with from 3 to 16 carbon atoms) whose logP values are known (determination of the logP values by the retention times using linear interpolation between two successive alkanones). The logP values given in Table 3 were determined in accordance with EEC Directive 79/831 Annex V.A8 by HPLC (High Performance Liquid Chromatography) using a reverse-phase column (C 18). Temperature: 43° C. (a) Mobile phases for the determination in the acidic range: 0.1% aqueous phosphoric acid, acetonitrile; linear gradient from 10% acetonitrile to 90% acetonitrile—the corresponding data in Table 3 are labelled ^a). Calibration was carried out using unbranched alkan-2-ones (with from 3 to 16 carbon atoms) whose logP values are known (determination of the logP values by the retention times using linear interpolation between two successive alkanones).

weeds [2] = experiment: Pre-emergence test, action against weeds; assay type: in vivo; conditions: soil sprayed about 24 hours after sowing, rated after three weeks
Procedure: (§2) Pre-emergence Test [table] To produce a suitable preparation of active compound, 1 part by weight of active compound is mixed with the stated amount of solvent, the stated amount of emulsifier is added and the concentrate is diluted with water to the desired concentration. Seeds of the test plants are sown in normal soil. After about 24 hours, the soil is sprayed with the preparation of active compound such that the particular amount of active compound desired is applied per unit area. The concentration of the spray liquor is chosen so that the particular amount of active compound desired is applied in 1000 liters of water per hectare. After three weeks, the degree of damage to the plants is rated in % damage in comparison to the development of the untreated control. The figures denote: [table]

[3] = system: crop plants, such as, for example, maize; experiment: Pre-emergence test, tolerance by crop plants; assay type: in vivo; conditions: rated after three weeks
Procedure: as §2

weeds [4] = experiment: Post-emergence test, activity against weeds; assay type: in vivo; conditions: test plants 5-15 cm sprayed, rated after three weeks
Procedure: (§3) Post-emergence Test [table] To produce a suitable preparation of active compound, 1 part by weight of active compound is mixed with the stated amount of solvent, the stated amount of emulsifier is added and the concentrate is diluted with water to the desired concentration. Test plants which have a height of 5-15 cm are sprayed with the preparation of active compound such that the particular amounts of active compound desired are applied per unit area. The concentration of the spray liquor is chosen so that the particular amounts of active compound desired are applied in 1000 l of water/ha After three weeks, the degree of damage to the plants is rated in % damage in comparison to the development of the untreated control. The figures denote: [table]

[5] = system: crop plants, such as, for example, wheat; experiment: Post-emergence test, tolerance by crop plants; assay type: in vivo; conditions: rated after three weeks
Procedure: as §3

[6] = logP by HPLC on reverse-phase column (C 18), neutral range; assay type: physicochemical; conditions: neutral range: 0.01 molar aqueous phosphate buffer/acetonitrile gradient, HPLC C 18, 43° C.
Procedure: as §1, with “(b)” for “(a)”, “neutral” for “acidic”, “0.01 molar” for “0.1%”, “phosphate buffer solution,” for “phosphoric acid,”, “^b).” for “^a).”

SMILES | logP a) [1] | logP [1] | other results
CSc1nn(Cc2cc(C(F)(F)F)ccc2C(=O)c2cnoc2C2CC2)c(=O)n1C [Example 2, (5-cyclopropyl-isoxazol-4-yl)-[2-(4-methyl-3-methylthio-5-oxo-4,5-dihydro-[1,2,4]-triazol-1-yl-methyl)-4-trifluoromethyl-phenyl]-methanone] |  |  | chromatographic logP ([1]; reverse-phase HPLC column (C 18), pH=2.3, read-out: logP (determined at pH=2.3)): 2.94
CCOc1nn(Cc2cc(Br)ccc2C(=O)c2c(C(=O)OC)noc2C2CC2)c(=O)n1C [Example 3] | (IA) logP = 3.15^a) |  | action against weeds (degree of damage) (weeds [2]): strong action against weeds; tolerance by crop plants [3]: tolerated well; activity against weeds (degree of damage) (weeds [4]): very strong activity against weeds; tolerance by crop plants [5]: tolerated well
CCOn1c(CC)nn(Cc2cc(Br)ccc2C(=O)c2c(C(=O)OC)noc2C2CC2)c1=O [Example 4] |  |  | logP b) [6]: (IA) logP = 3.36^b); action against weeds (degree of damage) (weeds [2]): strong action against weeds; tolerance by crop plants [3]: tolerated well; activity against weeds (degree of damage) (weeds [4]): very strong activity against weeds; tolerance by crop plants [5]: tolerated well
COC(=O)c1noc(C2CC2)c1C(=O)c1ccc(Br)cc1Cn1nc(C(F)(F)F)n(C)c1=O [Example 5] | (IA) logP = 3.50^a) |  | 
CCOc1nn(Cc2cc(C(F)(F)F)ccc2C(=O)c2c(C(=O)OC)noc2C2CC2)c(=O)n1C [Example 6] | (IA) logP = 3.32^a) |  | 
COC(=O)c1noc(C2CC2)c1C(=O)c1ccc(C(F)(F)F)cc1Cn1nc(SC)n(C)c1=O [Example 7] | (IA) logP = 3.22^a) |  | 
CN1CCN(Cc2c(Cl)ccc(C(=O)c3cnoc3C3CC3)c2Cl)C1=O [ID-1] | logP = 2.48^a) |  | 
COc1c(C(=O)c2cnoc2C2CC2)ccc(Cl)c1CN1CCN(C)C1=O [ID-2] | logP = 2.46^a) |  | 
CCOC(=O)c1ccc(C(F)(F)F)cc1Cn1nc(OC)n(C2CC2)c1=O [VII-91] |  | logP = 3.08^a) | 
COC(=O)c1ccc(C(F)(F)F)cc1Cn1c(=O)oc2ccccc21 [VII-121] |  | logP = 3.37^a) | 
COC(=O)c1ccc(C(F)(F)F)cc1CN1C(=O)c2ccccc2S1(=O)=O [VII-122] |  | logP = 3.29^a) | 
COC(=O)c1ccc(C(F)(F)F)cc1Cn1nnc2ccccc2c1=O [VII-123] |  | logP = 3.26^a) | 
